Reference: patent publication US11957684B2, “Treatment of heavy menstrual bleeding associated with uterine fibroids” (Sumitomo Pharma Switzerland GmbH, priority 2016, dated 2024)

How the values were obtained:
endometriosis = assay: Example 7 12-week study in endometriosis: efficacy (VAS, B&B, EHP-30); assay type: in vivo, human; settings: 3.75 mg sc/4 wk
Procedure: Secondary endpoints included VAS score for pelvic pain, dysmenorrhea, and dyspareunia during the treatment period. […] Subjects recorded in the patient diary every day until the end of treatment. […] Designated examinations and evaluations were performed at each visit. As used in the examples, the VAS score was evaluated using a 100 mm scale. For pain intensity, the scale was anchored by “no pain” (score of 0) and “pain as bad as you can imagine” (score of 100). […] The above items were evaluated using a patient diary that was distributed by the sponsor. Subjects filled out the patient diary every day during the treatment period or until early termination. If taking prohibited analgesics, subjects recorded this fact in the patient diary along with the accompanying pain symptoms before use of analgesics. As used in the examples, pain during menstruation and pelvic pain unrelated to menstruation were evaluated using scores on the M-B&B and B&B. The M-B&B scores were recorded by subjects on the patient diary supplied by the sponsor. Subjects filled out the patient diary every day during the treatment period or until early termination. If taking prohibited analgesics, subjects recorded this fact in the patient diary along with the accompanying pain symptoms before use of analgesics. The investigator or subinvestigator assessed each patient's pain through interviews and filled out a B&B once a month. The items that were assessed are shown below. The M-B&B score included: dysmenorrhea (severe, moderate, mild, no pain, or no menstruation); pelvic pain (severe, moderate, mild, or no pain); deep dyspareunia (severe, moderate, mild, no pain, or no intercourse). The B&B score included: dysmenorrhea (severe, moderate, mild, none, or not applicable); dyspareunia (severe, moderate, mild, none, or not applicable); pelvic pain (severe, moderate, mild, or none); pelvic tenderness (severe, moderate, mild, or none); and induration (severe, moderate, mild, or none). As used in the examples, the EHP-30 score was obtained by subjects assessing and recording their own QOL using the EHP-30 questionnaire.

[1] = tested on: women with uterine fibroids; settings: in vivo
Description: Secondary endpoints for safety included: Adverse events (AEs), vital signs, weight, standard 12-lead electrocardiogram (ECG), clinical laboratory tests, BMD, biochemical bone metabolism markers (serum N-telopeptide [NTELOP] and bone specific alkaline phosphatase [BAP])

[2] = human, in vivo; cited from earlier work

With CCNC(=O)[C@@H]1CCCN1C(=O)[C@H](CCCNC(=N)N)NC(=O)[C@H](CC(C)C)NC(=O)[C@@H](CC(C)C)NC(=O)[C@H](Cc1ccc(O)cc1)NC(=O)[C@H](CO)NC(=O)[C@H](Cc1c[nH]c2ccccc12)NC(=O)[C@H](Cc1c[nH]cn1)NC(=O)[C@@H]1CCC(=O)N1 [leuprolide acetate, reference compound] the “Physician B&B, dysmenorrhea” value (endometriosis; Week 12) was −2.1, the “Physician B&B, dyspareunia” value (endometriosis; Week 12) was −0.6 and the “Physician B&B, non-menstrual pelvic pain” value (endometriosis; Week 12) was −1.1. For the same molecule, the “change from baseline in EHP-30, Control and powerlessness” value (endometriosis; Week 12) was −19.6, the “change from baseline in EHP-30, Self-image” value (endometriosis; Week 12) was −6.1 and the “change from baseline in EHP-30, emotional well-being” value (endometriosis; Week 12) was −8.8. The “change from baseline in EHP-30, pain” value (endometriosis; Week 12) was −23.2, the “change from baseline in EHP-30, social support” value (endometriosis; Week 12) was −6.8 and the “change from baseline in mean VAS score, pelvic pain” value (endometriosis; end of 12-wk treatment period) was −10.460±10.3013 mm. The “Modified (patient) B&B, deep dyspareunia” value (endometriosis; end of treatment) was −0.36, the “Modified (patient) B&B, dysmenorrhea” value (endometriosis; end of treatment) was −1.16 and the “Modified (patient) B&B, non-menstrual pelvic pain” value (endometriosis; end of treatment) was −0.41. For the same molecule, the “change from baseline in proportion of days with usage of analgesics” value (endometriosis; end of treatment) was −8.3, the “AE leading to discontinuation: Abdominal pain” value [1] was 1(0.7) n(%) and the “AE leading to discontinuation: Arthralgia” value [1] was 1(0.7) n(%). The “AE leading to discontinuation: Back pain” value [1] was 1(0.7) n(%), the “AE leading to discontinuation: Blood pressure increased” value [1] was 1(0.7) n(%) and the “AE leading to discontinuation: Depression” value [1] was 0(0.0) n(%). The “AE leading to discontinuation: Drug eruption” value [1] was 1(0.7) n(%), the “AE leading to discontinuation: Fatigue” value [1] was 0(0.0) n(%) and the “AE leading to discontinuation: Headache” value [1] was 0(0.0) n(%). For the same molecule, the “AE leading to discontinuation: Hot flush” value [1] was 1(0.7) n(%), the “AE leading to discontinuation: Hypertension” value [1] was 1(0.7) n(%) and the “AE leading to discontinuation: Liver function test abnormal” value [1] was 1(0.7) n(%). For the same molecule, the “AE leading to discontinuation: Liver function test increased” value [1] was 1(0.7) n(%), the “AE leading to discontinuation: Malaise” value [1] was 1(0.7) n(%) and the “AE leading to discontinuation: Nausea” value [1] was 1(0.7) n(%). For the same molecule, the “AE leading to discontinuation: Pyrexia” value [1] was 1(0.7) n(%), the “AE leading to discontinuation: Tenosynovitis” value [1] was 0(0.0) n(%) and the “AE leading to discontinuation: Tenosynovitis stenosans” value [1] was 0(0.0) n(%). For the same molecule, the “AE: Arthralgia” value [1] was 9(6.3) n(%), the “AE: Bone density decreased” value [1] was 8(5.6) n(%) and the “AE: Bone resorption test abnormal” value [1] was 7(4.9) n(%). For the same molecule, the “AE: Dizziness” value [1] was 7(4.9) n(%), the “AE: Gamma-glutamyl transferase increased” value [1] was 9(6.3) n(%) and the “AE: Genital haemorrhage” value [1] was 7(4.9) n(%). For the same molecule, the “AE: Headache” value [1] was 14(9.9) n(%), the “AE: Hot flush” value [1] was 75(52.8) n(%) and the “AE: Hyperhidrosis” value [1] was 15(10.6) n(%). The “AE: Malaise” value [1] was 5(3.5) n(%), the “AE: Menorrhagia” value [1] was 22(15.5) n(%) and the “AE: Metrorrhagia” value [1] was 93(65.5) n(%). The “AE: Resorption bone increased” value [1] was 8(5.6) n(%), the “AE: Somnolence” value [1] was 6(4.2) n(%) and the “AE: Viral upper respiratory tract infection” value [1] was 46(32.4) n(%). For the same molecule, the “AEs Leading to Study Drug Discontinuation” value [1] was 7(4.9) n(%), the “ALP > 3 × ULN” value [1] was 0 (0.0) n (%) and the “ALT > 3 × ULN” value [1] was 2 (1.4) n (%). For the same molecule, the “ALT > 5 × ULN” value [1] was 0 (0.0) n (%), the “ALT and AST > 3 × ULN” value [1] was 0 (0.0) n (%) and the “ALT or AST > 3 × ULN with Tbili > 2 × ULN” value [1] was 0 (0.0) n (%). For the same molecule, the “AST > 3 × ULN” value [1] was 0 (0.0) n (%), the “AST > 5 × ULN” value [1] was 0 (0.0) n (%) and the “Any Markedly Abnormal LFT” value [1] was 2 (1.4) n (%). For the same molecule, the “SAEs Leading to Study Drug Discontinuation” value [1] was 0(0.0) n(%), the “Serious Treatment-Emergent AEs” value [1] was 2(1.4) n(%) and the “Serious Treatment-Emergent AEs, Not Related” value [1] was 2(1.4) n(%). The “Serious Treatment-Emergent AEs, Related” value [1] was 0(0.0) n(%), the “Treatment-Emergent AEs” value [1] was 139(97.9) n(%) and the “Treatment-Emergent AEs, Not Related” value [1] was 5(3.5) n(%). For the same molecule, the “Treatment-Emergent AEs, Related” value [1] was 134(94.4) n(%), the “bone mineral density decrease” value [2] was −2.21±1.709% and the “women with a decrease of more than 5.0% in bone mineral density” value [2] was 10 of 157.
